Where two headings read alike, the source gives them in different places. Marks after values point to notes of the source that are not given here.
Format: in vivo, BALB/c mice
Details: 20 mg/kg
Protocol: BALB/c mice of either gender aged 7 to 9 weeks weighing between 18 to 30 g were employed in this study. The mice were obtained from the Centre for Comparative Medicine Research, The University of Hong Kong. They were housed in a 12-h light/12-h dark cycle with food and water supplied ad libitum. All the animal experiments were performed with the approval from the Committee on the Use of Live Animals in Teaching and Research, The University of Hong Kong (CULATR 4921-19, approved on 1 February 2019).
The mice were randomly divided into two treatment groups (n = 45 per group, five mice per time point, nine time points in total). The intravenous (IV) group received capreomycin (sulfate) solution prepared in normal saline (4 mg/mL) via tail vein injection at a dose of 20 mg/kg. Intratracheal (IT) group received the C25_T90 formulation as powder aerosol intratracheally as previously described. In brief, the powder was loaded in a 200 µL gel loading pipette tip, which was connected with a three-way stopcock and 1 mL syringe. The pipette tip was inserted into the trachea of mice under anesthesia. The powder was dispersed into the lungs of mice by 0.6 mL of air in the syringe. After each powder insufflation, the pipette tip was removed and rinsed with 1 mL ultra-pure water. The rinsing solution was assayed by HPLC to calculate the residual mass of capreomycin in the tip. The delivered mass of capreomycin was calculated as drug content in the loaded mass of powder minus the residual mass of capreomycin in the tip. The insufflation efficiency (%) was the ratio of delivered mass of capreomycin to the loaded mass of capreomycin. According to a preliminary study, the insufflation efficiency of C25_T90 formulation was around 80% (unpublished data). […] The delivered dose within 17.5 to 22.5 mg/kg was considered successful administration, and mice that received dose outside this range were excluded. At 5 min, 15 min, 30 min, 1 h, 2 h, 4 h, 6 h, 8 h, and 24 h post-administration, the mice were euthanized with overdose pentobarbital (200 mg/kg). The whole blood was collected by cardiac puncture, followed by centrifugation at 13,000 rpm for 10 min to obtain the plasma. The lungs were collected and frozen in liquid nitrogen immediately. The plasma and lung tissues were stored at −80 °C until further analysis.
The extraction of capreomycin from plasma and tissue homogenates was performed according to a previous study with minor modification. Tissue homogenates were obtained by homogenizing the tissue with sterile water. A volume of 1 µL perchloric acid was added to a microcentrifuge tube containing 100 µL of plasma or tissue homogenates to induce protein precipitation. The mixtures were vortexed for 10 min and centrifuged at 16,000× g for 10 min. The supernatant was collected and neutralized with 110 µL basic mix of 1:10 KOH/K2HPO4 solution. The obtained mixtures were then vortexed, followed by centrifugation at 16,000× g for 15 min. The supernatant was transferred to glass vials for HPLC analysis. A standard curve was obtained by spiking known concentrations of capreomycin (0.6 to 40.0 µg/mL) into blank plasma or blank lung tissue homogenate followed by treatment as mentioned above. HPLC was performed using a C18 column (5 μm, 4.6 × 250 mm, Agilent, Santa Clara, CA, USA) with a guard cartridge. In this HPLC method, HFBA replaced TFA to improve peak resolution of the samples. The mobile phase consisted of 0.1% HFBA in ultrapure water (solvent A) and 0.1% HFBA in HPLC grade acetonitrile (solvent B), pumped at 1 mL/min under the following gradient: 0 to 2 min, 80% A; 2 to 22 min, 80–20% A; 22 to 25 min, 20% A (v/v). A volume of 50 µL sample was injected and capreomycin was detected by UV absorption at 268 nm. Capreomycin eluted at approximately 9.7 min with this method. […]

[1] = lung tissue, intravenous solution
[2] = lung tissue, intravenous, solution in normal saline, HPLC-UV, noncompartmental, mean ± SD, n = 5
[3] = lung tissue, intravenous, solution in normal saline, HPLC-UV, noncompartmental, mean ± SD, only three sets of data
[4] = plasma, intravenous, solution in normal saline, HPLC-UV, noncompartmental, mean ± SD, n = 5

For Capreomycin, which “Time after administration at which capreomycin was no longer detectable in the lung” value [1] is on record?
The value was 1 h.

And the “Time to Cmax” value [1]?
The value was no more than 20 min.

What about the “AUC0–t” value [2] of the same substance?
The value was 6710 ± 510 ng·h/mL.

And the Cmax [2]?
Its Cmax is 18.23 ± 8.34 µg/g.

And the MRT [2]?
The MRT was 13.8 ± 7.8 min.

And the Tmax [2]?
Its Tmax is 7.2 ± 4.2 min.

What about the “AUC0–∞” value [3] of the same substance?
Its value is 7.78 ± 0.46 ^b µg·h/mL.

And the Kel [3]?
The Kel was 2.37 ± 0.23 ^b h^−1.

What about the t1/2 [3] of the same substance?
The t1/2 was 0.29 ± 0.03 ^b h.

What about the Cmax [4] of the same substance?
Its Cmax is 74.89 ± 10.94 µg/mL.

And the “Tmax” value (plasma, intravenous solution)?
Its value is no more than 10 min.

What about the “AUC0–t” value [4] of the same substance?
Its value is 32550 ± 5520 ng·h/mL.

What about the “AUC0–∞” value [4] of the same substance?
The value was 33.78 ± 5.54 µg·h/mL.

What about the Kel [4] of the same substance?
The Kel was 2.74 ± 1.67 h⁻¹.

And the t1/2 [4]?
Its t1/2 is 0.34 ± 0.20 h.
